For 82 molecules, LC retention time results are on record in the RepoRT retention time repository (doi:10.1021/acs.analchem.1c00972).

This series is described as follows: RP, Waters ACQUITY UPLC BEH C18, 100 × 1 mm, 1.7 µm, 50 °C, 0.3 mL/min, estimated dead time 0.17 min; A: water + 10 mM ammonium bicarbonate; B: 10% water + 90% methanol + 10 mM ammonium bicarbonate; gradient (min/%B) 0/0 15/100 21/100 22/0 30/0. The note with it: stereoisomer not certain.
Regarding `Cc1cc(C(C)(C)C)c(O)c(C(C)(C)C)c1` [2,6-Di-tert.-butyl-4-methylphenol], the LC retention time is 18.1 min.

Regarding `CC(Cn1cnc2c(N)ncnc21)OCP(=O)(O)O` (configuration not stated) [Tenofovir], the LC retention time was 2.02 min.

`C=C(c1ccc(C(=O)O)cc1)c1cc2c(cc1C)C(C)(C)CCC2(C)C` [Bexarotene]: the LC retention time was 17 min.

On to `COC(=O)Nc1cccc(OC(=O)Nc2cccc(C)c2)c1` [Phenmedipham], for which the LC retention time is 13.6 min.

For the molecule `O=P(OCCCCl)(OCCCCl)OCCCCl` [Tris(3-chloropropyl) phosphate], the LC retention time is 14.6 min.

Regarding `CC1(C)CC(O)CC(C)(C)N1` [2,2,6,6-Tetramethylpiperidin-4-ol], the LC retention time was 4.21 min.

For `CC1(c2ccc(Oc3ccccc3)cc2)OC(=O)N(Nc2ccccc2)C1=O` (configuration not stated) [Famoxadone], the LC retention time is 16.1 min.

Regarding `CC(=O)N(CC(O)CO)c1c(I)c(C(=O)NCC(O)CO)c(I)c(C(=O)NCC(O)CO)c1I` (configuration not stated) [Iohexol], the LC retention time is 5.51 min.

For the molecule `CC(C)(C)c1ccc(CSc2cnn(C(C)(C)C)c(=O)c2Cl)cc1` [Pyridaben], the LC retention time was 18.3 min.

With `CNC(=O)ON=CC(C)(C)S(C)(=O)=O` [Aldicarb Sulfone], the LC retention time was 9.41 min.

Turning to `Cc1ccc(NC=O)c(C)c1` [2,4-Dimethylformanilide], the LC retention time is 11.2 min.

With `CCNc1nc(NC(C)(C)C)nc(OC)n1` [Terbumeton], the LC retention time is 14.3 min.

For `CNC(=C[N+](=O)[O-])NCCSCc1ccc(CN(C)C)o1` [Ranitidine], the LC retention time was 10.2 min.

`CNC(=O)Oc1ccccc1OC(C)C` [Propoxur (baygon)]: the LC retention time was 11.9 min.

Regarding `CCON=C(OC(=O)c1ccccc1)c1c(OC)ccc(Cl)c1OC` [Benzoximate], the LC retention time is 16.3 min.

As to `CC12CCC3c4ccc(O)cc4CCC3C1CCC2=O` (configuration not stated) [Estrone], the LC retention time was 14.2 min.

Turning to `CCCCCSCCOCCOCCOCCO` [3,6,9-Trioxa-12-thia-heptadecanol], the LC retention time was 14.6 min.

With `CC(C)(C)C(O)C(=Cc1ccc(Cl)cc1Cl)n1cncn1` (configuration not stated) [Diniconazole], the LC retention time is 16.5 min.

Take `NS(=O)(=O)c1cc(C2(O)NC(=O)c3ccccc32)ccc1Cl` (configuration not stated) [Chlorthalidon]: the LC retention time was 9.67 min.

`CC(=O)SC1CC2=CC(=O)CCC2(C)C2CCC3(C)C(CCC34CCC(=O)O4)C12` (configuration not stated) [Spironolactone]: the LC retention time was 14.2 min.

As for `CC=C1N(C)C(C)CC1(c1ccccc1)c1ccccc1` (configuration not stated) [EDDP], the LC retention time is 17.4 min.

In the case of `Cc1ccc(C)c(O)c1C` [2,3,6-Trimethylphenol], the LC retention time was 13.3 min.

Regarding `COC(=O)c1ccccc1S(N)(=O)=O` [Methyl 2-(aminosulfonyl)benzoate], the LC retention time is 8.1 min.

As to `CN(C)C(=O)Nc1ccc(Cl)cc1` [Monuron], the LC retention time is 11.3 min.

As to `CC(COc1ccc(Oc2ccccc2)cc1)Oc1ccccn1` (configuration not stated) [Pyriproxyfen], the LC retention time was 17.4 min.

As for `Nc1ccccc1Cl` [2-Chloroaniline], the LC retention time was 10.6 min.

On to `C#CC1(O)CCC2C3CCc4cc(OC)ccc4C3CCC21C` (configuration not stated) [Mestranol], for which the LC retention time was 14.3 min.

Regarding `CCNc1nc(Cl)nc(NC(C)(C)C)n1` [Terbuthylazine], the LC retention time was 14.4 min.

Consider `CCN(CC)CCNC(=O)c1cc(Cl)c(N)cc1OC` [Metoclopramide], for which the LC retention time is 12.3 min.

As to `CC1COCc2cc3c(cc21)C(C)(C)C(C)C3(C)C` (configuration not stated) [Galaxolide], the LC retention time is 18.2 min.

With `CC(N)C12CC3CC(CC(C3)C1)C2` (configuration not stated) [Rimantadin], the LC retention time is 13.9 min.

`NS(=O)(=O)c1ccccc1` [Benzenesulfonamide]: the LC retention time was 12.8 min.

`Nc1cccc(Cl)c1` [3-Chloroaniline]: the LC retention time is 10.6 min.

Consider `CNCC(c1ccc(O)cc1)C1(O)CCCCC1` (racemic) [rac N,O-Didesmethyl Venlafaxine], for which the LC retention time is 15.4 min.

`C=CC1C(OC2OC(CO)C(O)C(O)C2O)OC=C2C(=O)OCCC21` (configuration not stated) [Sweroside]: the LC retention time was 8.69 min.

Take `CNC(=O)Oc1cc(C)cc(C(C)C)c1` [Promecarb]: the LC retention time was 15 min.

With `Cc1nnc(NS(=O)(=O)c2ccc(N)cc2)s1` [Sulfamethizol], the LC retention time is 5.94 min.

`CNC(=O)ON=C(C)C(C)S(C)(=O)=O` (configuration not stated) [Butoxycarboxim]: the LC retention time is 9.41 min.

Consider `CS(=O)(=O)OCC(O)C(O)COS(C)(=O)=O` (configuration not stated) [Treosulfan], for which the LC retention time is 3.77 min.

With `Cc1cc(C(C)(C)c2ccc(O)c(C)c2)ccc1O` [Bisphenol C], the LC retention time was 13.9 min.

In the case of `CC(=O)Nc1c(C)n(C)n(-c2ccccc2)c1=O` [N-Acetyl-4-aminoantipyrine], the LC retention time is 7.94 min.

Turning to `CCNc1ccccc1` [N-Ethylaniline], the LC retention time was 12.2 min.

On to `Nc1[nH]c(=O)ncc1F` [5-Fluorocytosine], for which the LC retention time is 5.99 min.

For the molecule `Cc1nnc(-c2ccccc2)c(=O)n1N` [Metamitron], the LC retention time is 9 min.

In the case of `c1ccc(OCCOc2ccccc2)cc1` [Ethylene glycol diphenylether], the LC retention time is 13.5 min.

Take `CC(C)Nc1nc(N)nc(Cl)n1` [Desethylatrazine]: the LC retention time was 9.95 min.

As for `Cn1c(=O)c2[nH]cnc2n(C)c1=O` [Theophyllin], the LC retention time is 6.11 min.

As to `CCN1CCN(C(=O)NC(C(=O)NC2C(=O)N3C(C(=O)O)=C(CSc4nnnn4C)CSC23)c2ccc(O)cc2)C(=O)C1=O` (configuration not stated) [Cefoperazone], the LC retention time is 8.34 min.

For the molecule `CC(=O)Nc1ccc(O)cc1` [Acetaminophen], the LC retention time is 5.35 min.

As for `CCOCCN(C(=O)CCl)C(=C(C)C)c1ccccc1` [Pethoxamid], the LC retention time was 15.3 min.

For the molecule `CNC(=O)Oc1cc(C)c(SC)c(C)c1` [Methiocarb], the LC retention time was 14.3 min.

For the molecule `C#CC(C)(C)NC(=O)c1cc(Cl)cc(Cl)c1` [Propyzamide], the LC retention time was 14.6 min.

For the molecule `CN(C)CCC=C1c2ccccc2CCc2ccccc21` [Amitriptyline], the LC retention time was 17.4 min.

For `O=c1[nH]sc2ccccc12` [1,2-Benzisothiazolinone], the LC retention time is 6.97 min.

Take `COc1ccc(S(=O)(=O)O)cc1` [4-Methoxybenzenesulfonic acid]: the LC retention time was 4.27 min.

On to `CC(N)C(O)c1ccccc1` (configuration not stated) [Cathine], for which the LC retention time is 8.36 min.

With `CC1(C)CC(=O)CC(C)(C)N1` [2,2,6,6-Tetramethyl-4 piperidone], the LC retention time is 7.87 min.

In the case of `CC(C)C(=O)OCC(C)(C)C(OC(=O)C(C)C)C(C)C` (configuration not stated) [2,2,4-Trimethyl-1,3-pentanediol diisobutyrate], the LC retention time is 17.4 min.

As for `Cn1sc(Cl)cc1=O` [Methylchloroisothiazolinone], the LC retention time is 6.48 min.

Turning to `COC(=O)C(C)N(C(=O)Cc1ccccc1)c1c(C)cccc1C` (configuration not stated) [Benalaxyl], the LC retention time was 16 min.

Turning to `C=CC1=C(C(=O)O)N2C(=O)C(NC(=O)C(=NOCC(=O)O)c3csc(N)n3)C2SC1` (configuration not stated) [Cefixim], the LC retention time is 5.67 min.

As for `COc1cc([N+](=O)[O-])ccc1O` [4-Nitroguaiacol], the LC retention time is 4.61 min.

As to `Cc1ccccc1N` [o-Toluidine], the LC retention time is 9.21 min.

Take `CC(C)N(C(=O)C(=O)O)c1ccccc1` [Propachlor oxanilic acid (OA)]: the LC retention time is 11.3 min.

Consider `CN1C(=O)CN=C(c2ccccc2)c2cc(Cl)ccc21` [Diazepam], for which the LC retention time is 14.6 min.

On to `CC(C)(c1ccc(O)c(-c2ccccc2)c1)c1ccc(O)c(-c2ccccc2)c1` [Bisphenol PH], for which the LC retention time was 17.1 min.

For the molecule `CN(C)CCCC1(c2ccc(F)cc2)OCc2cc(C#N)ccc21` (configuration not stated) [Citalopram], the LC retention time was 14.8 min.

For the molecule `O=c1[nH]c2c(c(=O)n1C1CCCCC1)CCC2` [Lenacil], the LC retention time was 13.1 min.

For `Oc1ccc(C(c2ccccc2)(c2ccccc2)c2ccc(O)cc2)cc1` [Bisphenol BP], the LC retention time was 15.9 min.

For `NC1=NCCN1Cc1ccc(Cl)nc1` [Imidacloprid-guanidine], the LC retention time is 6.72 min.

On to `NC(=O)N1c2ccccc2CC(=O)c2ccccc21` [Oxcarbazepine], for which the LC retention time is 11.7 min.

On to `CNC(=O)CSP(=O)(OC)OC` [Omethoate], for which the LC retention time is 6.12 min.

In the case of `CC(=O)OCC12CCC(C)=CC1OC1C(O)C(OC(C)=O)C2(C)C12CO2` (configuration not stated) [Diacetoxyscirpenol], the LC retention time was 12.1 min.

For `Cc1cccc(C)c1N(Cn1cccn1)C(=O)CCl` [Metazachlor], the LC retention time was 13.3 min.

Regarding `Nc1ccc(S(=O)(=O)Nc2ccccn2)cc1` [Sulfapyridine], the LC retention time was 6.64 min.

With `CCC(C)Nc1nc(N)nc(Cl)n1` (configuration not stated) [Desethylsebutylazin], the LC retention time was 11.5 min.

As to `CCNc1nc(Cl)nc(NC(C)C)n1` [Atrazine], the LC retention time is 13.1 min.

`CC(=O)N(C)c1ccccc1` [N-Methylacetanilide]: the LC retention time is 11.2 min.

For the molecule `CC(C)N(C(=O)CCl)c1ccccc1` [Propachlor], the LC retention time was 13.3 min.

Regarding `C#CC1(O)CCC2C3CCc4cc(O)ccc4C3CCC21C` (stereo not drawn) [17-alpha-Ethinylestradiol], the LC retention time was 14.3 min.

Turning to `CSc1nnc(C(C)(C)C)c(=O)[nH]1` [Metribuzin-desamino], the LC retention time is 11.6 min.

Regarding `Cc1cccc(C)c1O` [2,6-Dimethylphenol], the LC retention time was 12 min.
